Measurements from patent US9939427B2, “Method for evaluating the scent performance of perfumes or perfume mixtures” (Symrise AG, priority 2013, dated 2018).

Target: T1, OR10Q1 (Homo sapiens, UniProt Q8NGQ4)
T1 construct: specific primers, which amplify the complete open reading frame; expressed in transfected cells; host or cells: HEK293
T1 sequence (Q8NGQ4 1-319): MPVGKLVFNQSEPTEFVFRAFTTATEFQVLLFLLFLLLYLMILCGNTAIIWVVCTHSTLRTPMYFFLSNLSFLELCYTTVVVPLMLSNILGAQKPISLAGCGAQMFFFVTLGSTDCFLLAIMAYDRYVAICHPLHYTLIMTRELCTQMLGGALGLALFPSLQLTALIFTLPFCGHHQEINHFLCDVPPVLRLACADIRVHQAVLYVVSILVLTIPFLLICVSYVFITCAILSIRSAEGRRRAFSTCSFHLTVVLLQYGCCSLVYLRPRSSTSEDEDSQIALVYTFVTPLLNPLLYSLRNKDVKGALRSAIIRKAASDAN
Experiment: CRE-luciferase assay, OR10Q1 in HANA3A cells
Type: cell-based
Settings: 50 μM, 100 μM, 150 μM, 200 μM and 250 μM; ratio of firefly to renila
Method: Calcium cations and phosphate anions created crystal precipitations coupled with DNA which could invade into the cells through endocytosis. Cells were transiently transfected with plasmid DNA which consists of pCI expression vector and PCR-amplified full-length cDNA of olfactory receptors candidates, and also Gα15, RTP1, Myr-Ric8A, HSC70, and m-Cherry as cofactors. The precipitation could be created after 15-20 min, with dropping the transfection solution on HEK293 cells. Before measuring by Ca-imaging cells were incubated 48-60 hours at 370 C, 5% CO2. Cationic liposome-mediated transfection method was applied to transfect DNA plasmid transiently in HANA3A cells in case of CRE-Luciferase and CRE-SEAP assays. […]
ORs responded by Ca-imaging with seven separate odorant mixtures formed from 66 odorants. […] Transfected HANA3A cells on poly-D-lysine-coated 96 well plates are ready for stimulation after 24 h. […] Measuring by plate reader (Luminometer). • 6. […] Measuring by plate reader (Luminometer). • 8. According to manufacturer's protocols for measuring luciferase and renilla activities, calculate normalized luciferase activity with using the formula (Ln-Lmin)/(Lmax-Lmin), where Ln is the luminescence of firefly in response to the odorant, L min is the minimum luciferase value on a plate, and L max is the maximum luciferase value on plate. […]

- CRE-luciferase (cAMP assay) response of OR10Q1: positive responses
SMILES: O=C1CCCCCCCCCCCCCCO1 [Pentadecanolide, ω-cyclopentadecanolide]
